Values of other authors, collected in US8420593B1, “Compositions and methods for regulating membrane potential” (priority 2006, dated 2013).
Where a name gives a salt, the structure may show the parent alone. Read-outs that look alike come from different tables or passages of the source.

Key:
spinal cord injury [1] = settings: days 25, 26 and 27
[2] = system: chronic spinal cord injury; settings: in vivo
spinal cord injury [3] = system: spinal cord injury
[4] = system: potassium currents in PC12 cells

| Structure (SMILES) | motor function (open field walking analysis) (spinal cord injury [1]; 0.6 mg/kg, ip, compared with HP184) | side effects associated with central nervous system activation [2] | motor function (open field walking) (spinal cord injury [3]; 3 mg/kg, po, long-standing (35 day post injury) injury, moderate intensity) | improvement in walking ability, multiple dose studies (spinal cord injury [3]; once a day oral dosing at 3, 1 and 0.3 mg/kg, moderately injured rats, compression model) | activity on potassium currents [4] | activity on sodium channels (sodium channels) | motor function (open field walking analysis) (spinal cord injury [1]; 3, 10 and 20 mg/kg, po, established (25 day post injury) injury, mild intensity) |
| --- | --- | --- | --- | --- | --- | --- | --- |
| Nc1ccncc1 [4-AP, 4-aminopyridine] | This improvement was equaled by the improvement observed with 4-AP | restlessness, confusion, and infrequently reported findings of generalized tonic-clonic seizure |  |  |  |  |  |
| CCCN(c1ccncc1F)n1cc(C)c2ccccc21 [HP184, N-[N-propyl]-N-[3-fluoro-4-pyridinyl]-1H-3-methylindole-1-amine hydrochloride] |  |  | significantly improved motor function | confirmed the effectiveness | voltage dependent blocker of potassium currents | use- and frequency dependent blocker of sodium channels | significantly improved motor function |
